# Results: US20160251332A1, “Herbicidal Compounds” (SYNGENTA PARTICIPATIONS AG, priority 2013, published 2016)
# Tests used:
# Assay type in all cases: in vivo
# Amaranthus retroflexus [1] = test: Pre-emergence herbicidal activity, AMARE; details: Application pre-emergence, 1000 g/Ha, evaluated after 13 days, scale 0-5
# Description: (§1) Seeds of a variety of test species were sown in standard soil in pots. After cultivation for one day (pre-emergence) under controlled conditions in a glasshouse (at 24/16° C., day/night; 14 hours light; 65% humidity), the plants were sprayed with an aqueous spray solution derived from the formulation of the technical active ingredient in acetone/water (50:50) solution containing 0.5% Tween 20 (polyoxyethelyene sorbitan monolaurate, CAS RN 9005-64-5). The test plants were then grown in a glasshouse under controlled conditions (at 24/16° C., day/night; 14 hours light; 65% humidity) and watered twice daily. After 13 days, the test was evaluated (5=total damage to plant; 0=no damage to plant).
# Echinochloa crus-galli [2] = test: Pre-emergence herbicidal activity, ECHCG; details: Application pre-emergence, 1000 g/Ha, evaluated after 13 days, scale 0-5
# Description: as §1
# Abutilon theophrasti [3] = test: Pre-emergence herbicidal activity, ABUTH; details: Application pre-emergence, 1000 g/Ha, evaluated after 13 days, scale 0-5
# Description: as §1
# Setaria faberi [4] = test: Pre-emergence herbicidal activity, SETFA; details: Application pre-emergence, 1000 g/Ha, evaluated after 13 days, scale 0-5
# Description: as §1
# Alopecurus myosuroides [5] = test: Pre-emergence herbicidal activity, ALOMY; details: Application pre-emergence, 1000 g/Ha, evaluated after 13 days, scale 0-5
# Description: as §1
# Zea mays [6] = test: Pre-emergence herbicidal activity, ZEAMX; details: Application pre-emergence, 1000 g/Ha, evaluated after 13 days, scale 0-5
# Description: as §1
# Amaranthus retroflexus [7] = test: Post-emergence herbicidal activity, AMARE; details: Application post-emergence, 1000 g/Ha, evaluated after 13 days, scale 0-5
# Description: (§2) Seeds of a variety of test species were sown in standard soil in pots. After 8 days cultivation (post-emergence) under controlled conditions in a glasshouse (at 24/16° C., day/night; 14 hours light; 65% humidity), the plants were sprayed with an aqueous spray solution derived from the formulation of the technical active ingredient in acetone/water (50:50) solution containing 0.5% Tween 20 (polyoxyethelyene sorbitan monolaurate, CAS RN 9005-64-5). The test plants were then grown in a glasshouse under controlled conditions (at 24/16° C., day/night; 14 hours light; 65% humidity) and watered twice daily. After 13 days, the test was evaluated (5=total damage to plant; 0=no damage to plant).
# Abutilon theophrasti [8] = test: Post-emergence herbicidal activity, ABUTH; details: Application post-emergence, 1000 g/Ha, evaluated after 13 days, scale 0-5
# Description: as §2
# Setaria faberi [9] = test: Post-emergence herbicidal activity, SETFA; details: Application post-emergence, 1000 g/Ha, evaluated after 13 days, scale 0-5
# Description: as §2
# Echinochloa crus-galli [10] = test: Post-emergence herbicidal activity, ECHCG; details: Application post-emergence, 1000 g/Ha, evaluated after 13 days, scale 0-5
# Description: as §2
# Zea mays [11] = test: Post-emergence herbicidal activity, ZEAMX; details: Application post-emergence, 1000 g/Ha, evaluated after 13 days, scale 0-5
# Description: as §2
# Alopecurus myosuroides [12] = test: Post-emergence herbicidal activity, ALOMY; details: Application post-emergence, 1000 g/Ha, evaluated after 13 days, scale 0-5
# Description: as §2
SMILES,AMARE damage score (Amaranthus retroflexus [1]),ECHCG damage score (Echinochloa crus-galli [2]),ABUTH damage score (Abutilon theophrasti [3]),SETFA damage score (Setaria faberi [4]),ALOMY damage score (Alopecurus myosuroides [5]),ZEAMX damage score (Zea mays [6]),AMARE damage score (Amaranthus retroflexus [7]),ABUTH damage score (Abutilon theophrasti [8]),SETFA damage score (Setaria faberi [9]),ECHCG damage score (Echinochloa crus-galli [10]),ZEAMX damage score (Zea mays [11]),ALOMY damage score (Alopecurus myosuroides [12])
COc1ccccc1-c1cnc(N2C(=O)N(C)CC2O)cc1C(F)(F)F (stereo not drawn) [Compound A18],2,3,2,1,2,1,5,5,2,4,5,2
CN1CC(O)N(c2cc(C(F)(F)F)c(Br)cn2)C1=O (stereo not drawn) [Compound A19],5,5,5,5,5,5,5,5,5,5,4,5
CN1CC(O)N(c2cc(C(F)(F)F)c(-c3ccccc3)cn2)C1=O (stereo not drawn) [Compound A3],5,5,5,5,4,4,5,5,5,5,2,5
Cc1ccccc1-c1cnc(N2C(=O)N(C)CC2O)cc1C(F)(F)F (stereo not drawn) [Compound A7],3,1,2,1,1,1,5,5,5,5,3,4
CN(C)C(=O)c1cccc(-c2cnc(N3C(=O)N(C)CC3O)cc2C(F)(F)F)c1 (stereo not drawn) [Compound A12],1,1,3,1,0,0,5,5,5,2,2,2
CN1CC(O)N(c2cc(C(F)(F)F)c(-c3ccc(C#N)cc3)cn2)C1=O (stereo not drawn) [Compound A16],5,3,3,4,2,3,5,5,5,5,5,5
"CN1CC(O)N(c2cc(C(F)(F)F)c(I)cn2)C1=O (stereo not drawn) [Compound A5, 4-hydroxy-3-[5-iodo-4-(trifluoromethyl)-2-pyridyl]-1-methyl-imidazolidin-2-one]",5,5,5,5,4,4,5,5,5,5,5,5
